How the values were obtained:
[1] = molecular target: T1, human OX2 receptor (Homo sapiens, UniProt O43614); assay: Measurement of orexin type 2 receptor agonist activity (calcium fluorescence, Fluo-4, FDSS); type: cell-based; details: 3 uM test compound; CHO cells expressing human OX2 receptor; DMSO = 0%, 10 nM orexin A (human) = 100%
T1 construct: expressed in transfected cells
T1 sequence (O43614 1-444): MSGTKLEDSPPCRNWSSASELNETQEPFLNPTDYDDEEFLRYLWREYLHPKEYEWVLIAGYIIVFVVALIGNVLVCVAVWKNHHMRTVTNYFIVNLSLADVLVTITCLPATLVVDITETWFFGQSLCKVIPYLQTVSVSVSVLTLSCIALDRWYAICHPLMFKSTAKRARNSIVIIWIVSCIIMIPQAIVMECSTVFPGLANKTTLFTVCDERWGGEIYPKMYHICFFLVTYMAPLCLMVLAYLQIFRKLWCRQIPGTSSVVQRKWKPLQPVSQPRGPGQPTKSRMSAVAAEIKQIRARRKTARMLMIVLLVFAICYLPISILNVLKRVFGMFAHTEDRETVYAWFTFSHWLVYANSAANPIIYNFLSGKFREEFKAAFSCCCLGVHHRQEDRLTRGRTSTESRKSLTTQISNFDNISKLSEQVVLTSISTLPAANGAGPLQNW
Summary of the method: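 Agonist activity (%) was normalised to the response to 10 nM final human orexin A (100%) and to the DMSO vehicle (0%). The response was measured as the Fluo-4 calcium signal, read kinetically over 1 min 40 s after compound addition to Fluo-4/probenecid-loaded stable CHO-K1 clones expressing human OX2 (aa 1-444).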

[2] = system: cynomolgus monkeys; assay: Evaluation of wake-promoting effects in cynomolgus monkeys (EEG, EMG, locomotor activity); type: in vivo, cynomolgus monkey; details: Macaca fascicularis, po; 1 mg/kg, p.o., at zeitgeber time 12; 4 hours after administration; male cynomolgus monkeys; read-out: Wakefulness time (% of vehicle treatment) (Mean, n = 2-4)
Protocol: The wake-promoting effects were evaluated by measuring the electroencephalogram (EEG), electromyogram (EMG) and locomotor activity in cynomolgus monkeys. Under isoflurane anesthesia (0.5-5%, Pfizer Japan Inc., Tokyo, Japan), male cynomolgus monkeys (2-3 years old, Hamri Co., Ltd., Ibaraki, Japan) were surgically implanted with radio-telemetry transmitters (L03-F3, Data Sciences International Inc., MN, USA). The two EEG electrodes were stereotaxically positioned at the parietal area and secured to the cranium with stainless-steel screws in contact with the dura. Bilateral EMG electrodes were implanted into the back cervical muscles. After at least a 1-month recovery period in home cages, the monkeys were habituated to the recording chamber (an acrylic cage 60W×55D×75H (cm)) located in a soundproof and electrically shielded room by the time animals sleep sufficiently in the experimental room. Cortical EEG, EMG and locomotor activity were recorded using the telemetry system (PhysioTel Digital telemetry platform, Data Sciences International Inc.). The signals were semi-automatically scored in 20-second epochs by a sleep scoring system (SleepSign, Kissei Comtec Co., Ltd., Nagano, Japan).
Test compound (1 or 3 mg/kg) suspended in 0.5% methylcellulose aqueous solution or vehicle (i.e., 0.5% methylcellulose aqueous solution) was administered orally (p.o.) to monkeys at zeitgeber time 12 in a volume of 5 mL/kg body weight with a pretest-posttest design (n=2-4), and then EEG, EMG and locomotor activity were recorded for 4 hours after administration. The time spent in wakefulness for 4 hours after administration (% of vehicle treatment) was calculated by using SleepSign.

Row | SMILES | OX2R agonist activity (3 uM, %) [1] [%] | response vs control in vivo at 1 mg/kg [2] [%]
1 | CS(=O)(=O)N[C@@H]1CN2C(=O)N(c3noc4ccc(F)c(-c5c(F)cccc5F)c34)CC[C@@H]2C1(F)F [Example 265, N-{(4aR,6R)-2-[4-(2,6-difluorophenyl)-5-fluoro-1,2-benzoxazol-3-yl]-5,5-difluoro-1-oxooctahydropyrrolo[1,2-c]pyrimidin-6-yl}methanesulfonamide] | 107 | 472
2 | CCS(=O)(=O)N[C@@H]1Cn2c(cn(-c3noc4cc(F)cc(-c5c(F)cccc5F)c34)c2=O)C1(F)F [Example 282, N-{(6R)-2-[4-(2,6-difluorophenyl)-6-fluoro-1,2-benzoxazol-3-yl]-7,7-difluoro-3-oxo-2,5,6,7-tetrahydro-3H-pyrrolo[1,2-c]imidazol-6-yl}ethanesulfonamide] | 105 | 418

Source: patent US11987586B1 (TAKEDA PHARMACEUTICAL COMPANY LIMITED, priority 2022, dated 2024)
